No end group written: not given here.
Columns and labels:
[1] = tested on: experimental myocardial ischemia-reperfusion; conditions: by attenuating neutrophil migration; cited from earlier work
[2] = tested on: splanchnic artery occlusion and reperfusion injury; conditions: by affecting neutrophil migration; cited from earlier work
rat model of CPB/DHCA = test: Preclinical rat model of CPB/DHCA, cardiac-surgery associated AKI (Example I, i.p.); format: in vivo
Description: FIGS. 1A-B. ANXA1 short peptide (ANXA1sp) treatment ameliorates proximal tubular apoptosis and inhibits the activity of caspase-3 induced by ischemia-reperfusion injury following deep hypothermia circulatory arrest (DHCA). Quantification of apoptosis was determined by terminal deoxynucleotidyl transferase dUTP nick end labeling (TUNEL) staining (A) and the activity of caspase-3 analyzed by Western blot (B) at 24 h after DHCA in rats either treated with ANXA1sp or 0.1% DMSO (vehicle) i.p. Results are shown as mean±SD of six animals in each group. *p<0.002.
FIGS. 2A-B. Effect of treatment of ANXA1sp after ischemia-reperfusion injury on cell apoptosis and cell proliferation. (A) Treatment with ANXA1sp inhibits apoptosis (TUNEL staining) and enhances proliferation (PCNA staining) induced by ischemia-reperfusion injury following deep hypothermia circulatory arrest (DHCA). Representative sections from 24 hrs after DHCA in rats treated with either ANXA1sp or 0.1% DMSO (vehicle) (original magnification 300×). (B) ANXA1sp tilts the balance of proximal tubular cell fate toward survival after ischemia-reperfusion injury. A ratio of proliferation/apoptosis (TUNEL) was calculated in proximal tubules 24 hrs after DHCA in rats treated with either ANXA1sp or 0.1% DMSO (vehicle). Results were shown as mean±SD of six rats in each group. *p<0.005 versus vehicle.
FIGS. 3A-C. (A) Protein levels of neutrophil gelatinase associated lipocalin (NGAL) analyzed by Western blot in the kidney 24 hrs after reperfusion following cardiopulmonary bypass (CPB) and deep hypothermic circulatory arrest (DHCA) in vehicle treated animals (Vehicle) versus ANXA1sp treated animals (ANXA1sp). Results are shown as mean±SD. (n=6). *p<0.01 vs. Vehicle. (B) Effect of ANXA1sp on renal NGAL protein levels. Results are representative of six independent experiments in each group. (C) The location of NGAL protein detected by immunohistochemistry in the kidney 24 hrs after reperfusion following DHCA in vehicle treated animals (Vehicle) versus ANXA1sp treated animals (ANXA1sp). NGAL protein was visualized with the NGAL antibody. NGAL positive staining was abundant in ANXA1sp treated animals and mainly located in the proximal tubule cells (red color) (original magnification 200×).
FIG. 4. ANXA1sp treatment represses the renal levels of TNF-α induced by ischemia-reperfusion injury following deep hypothermia circulatory arrest (DHCA) analyzed by ELISA in the kidney 24 hrs after reperfusion in rats either treated with ANXA1sp (open bar, n=6) or vehicle (0.1% DMSO) i.p. (filled bar, n=6). Results are expressed as mean value±SD; *p<0.05 vs. Vehicle.
(§1) NGAL positive staining was abundant in ANXA1sp treated animals and mainly located in the proximal tubule cells (FIG. 3C).

rat model of CPB/CA = test: Early renal biomarker GST-μ in rat urine, preclinical model of CPB/CA; format: in vivo; conditions: setting of myocardial ischemia/reperfusion, n=3, vs vehicle
From the text: FIG. 5. […] Values presented are means±SD; n=3; *p<0.05 vs. Vehicle.
as §1

[3] = tested on: myocardial ischemia-reperfusion; conditions: several in vitro and in vivo preclinical models; cited from earlier work
[4] = tested on: Male Sprague-Dawley rats, CPB/DHCA; test: Rat CPB/DHCA, ANXA1sp 2 mg/kg i.v. (Example II); format: in vivo
Description: Male Sprague-Dawley rats were prepared for 60 min of DHCA at 18° C. and received either vehicle or ANXA1 sp (2 mg/kg) i.v. at one hour before CPB and one hour after reperfusion. Renal tissue and serum samples were harvested at 3 (n=5), 6 (n=3), and 24 hours (n=3) i.v. after CPB/DHCA. The time course of renal activity of NF-kappa B was determined by a rat specific ELISA kit. Changes of renal and serum levels of the proinflammatory cytokines tumor necrosis factor-alpha (TNF-α) and interleukin (IL)-6 as well as myeloperoxidase (MPO) were measured by ELISA. Changes of renal levels of activated caspase-3 were determined by Western blot. At 24 hours after DHCA, apoptotic proximal tubular cells was identified by TUNEL and quantified by counting the numbers of apoptotic proximal tubular cells in 5 representative renal areas.

myocardial I/R injury = conditions: cited from earlier work
[5] = 6 and 24 h after DHCA, vs vehicle

Ac-Ala-Met-Val-Ser-Glu-Phe-Leu-Lys-Gln-Ala-Trp Phe-Ile-Glu-Asn-Glu-Glu-Gln-Glu-Tyr-Val-Gln-Thr-Val-Lys (Ac-AMVSEFLKQAWFIENEEQEYVQTVK) [Ac2-26]
protection against experimental myocardial ischemia-reperfusion [1]: protects
protection against splanchnic artery occlusion and reperfusion injury [2]: protects

Ac-Gln-Ala-Trp [ANXA1sp]
numbers of proximal tubular cells (apoptosis, TUNEL staining) (rat model of CPB/DHCA; 24 h after DHCA, i.p., vs vehicle, n=6): reduced numbers
tubule cell proliferation (PCNA staining) (rat model of CPB/DHCA; 24 hrs after DHCA, vs vehicle): enhanced
expression of NGAL in the kidney (Western blot) (rat model of CPB/DHCA; 24 hrs after reperfusion following CPB and DHCA, vs vehicle): significantly higher expression
levels of TNF-α protein in the kidney (ELISA) (rat model of CPB/DHCA; 24 hrs after reperfusion, i.p., vs vehicle): significantly lower levels
activity of caspase-3 (Western blot) (rat model of CPB/DHCA; kidney, 24 h after DHCA, i.p., vs vehicle): lower activity
NGAL positive staining (immunohistochemistry) (rat model of CPB/DHCA; kidney, 24 hrs after reperfusion, mainly located in proximal tubule cells): abundant
balance of proximal tubular cell fate (ratio of proliferation/apoptosis) (rat model of CPB/DHCA; proximal tubules, 24 hrs after DHCA, vs vehicle): tilted the balance of proximal tubular cell fate toward survival
cardiac-surgery associated acute kidney injury (AKI) (rat model of CPB/DHCA; rat CPB/DHCA, vs vehicle (0.1% DMSO)): significantly attenuates
expression of GST-μ in rat urine (rat model of CPB/CA): significantly reduced expression
cardioprotective efficacy [3]: robust cardioprotective efficacy
AKI following CPB/DHCA [4]: attenuates
renal activity of NF-kappa B (ELISA) ([4]; 3 and 6 hours after DHCA, vs vehicle): significant inhibition
renal levels of IL-6 (ELISA) [4, 5]: significantly suppressed
renal levels of MPO (ELISA) [4, 5]: significantly suppressed
numbers of apoptotic proximal tubular cells (TUNEL) ([4]; 24 h after DHCA, vs vehicle): reduced numbers
renal levels of TNF-α (ELISA) ([4]; 24 hours after DHCA, vs vehicle): significantly suppressed
renal activity of caspase-3 (Western blot) ([4]; different time points after DHCA, vs vehicle): significantly decreased
release of IL-6 in the serum ([4]; vs vehicle, data not shown): significantly reduced release
release of MPO in the serum ([4]; vs vehicle, data not shown): significantly reduced release
release of TNF-α in the serum ([4]; vs vehicle, data not shown): significantly reduced release

B1: ANXA1: 37 kDa protein, member of the annexin superfamily; about 346 amino acids (SEQ ID NO:2) (protein, listed as Homo sapiens)
chain: MAMVSEFLKQAWFIENEEQEYVQTVKSSKGGPGSAVSPYPTFNPSSDVAALHKAIMVKGVDEATIIDILTKRNNAQRQQIKAAYLQETGKPLDETLKKALTGHLEEVVLALLKTPAQFDADELRAAMKGLGTDEDTLIEILASRTNKEIRDINRVYREELKRDLAKDITSDTSGDFRNALLSLAKGDRSEDFGVNEDLADSDARALYEAGERRKGTDVNVFNTILTTRSYPQLRRVFQKYTKYSKHDMNKVLDLELKGDIEKCLTAIVKCATSKPAFFAEKLHQAMKGVGTRHKALIRIMVSRSEIDMNDIKAFYQKMYGISLCQAILDETKGDYEKILVALCGGN
leukocyte-dependent myocardial damage (myocardial I/R injury; myocardial I/R injury): reduces
numbers of extravasated leukocytes (myocardial I/R injury; rats treated with ANXA1): significantly lower numbers

From patent US20140296149A1, “Compositions and Methods for the Treatment of Cardiac Surgery-Associated Acute Kidney Injury with Annexin A1 Peptide” (priority 2010, published 2014)
